In US20080188449A1, “Treatment of Conditions Caused By Calcium Abnormalities” (priority 2004, published 2008):

Legend:
[1] = tested on: HeLa cells; assay: [^3H]-triptolide competition binding in HeLa cells; conditions: for competition for [^3H]-triptolide binding: 1 μM competitor
Experimental: To gain insight into triptolide's mechanism of action Applicants sought to determine its specific binding activity utilizing a system employing [^3H]-triptolide. In addition to competition with 1 μM or 10 μM unlabeled triptolide, Applicants also measured the binding affinities of triptolide analogs (FIG. 1A). These analogs have been previously described and differ structurally from triptolide in the hydrolysis of the 12,13 epoxide (2), and formation of the ketone at the C-14 hydroxyl (3) (FIG. 1A). […] The effective interaction of these analogs with a presumed triptolide binding entity led us to their use in subsequent experiments addressing the mode of triptolide's biological functions.
(§1) To address first the nature of triptolide binding within the cell, Applicants determined this interaction was reversible as [^3H]-triptolide labeling was out competed by subsequent addition of excess unlabeled triptolide (FIG. 2A). […] Although 25% of the total cellular counts (i.e., representing bound triptolide) were found in the cytosolic fraction, it is uncertain whether this is specific binding or simply that free triptolide had dissociated from its binding protein due to experimental manipulation during fractionation. Since the data thus far had only shown binding within whole cells, Applicants next determined if this triptolide binding protein could be further characterized and/or enriched by its association with chromatographic reagents. HeLa cells were once again labeled with [^3H]-triptolide and total cell lysates were then passed over the anion exchange resin DEAE. Batch elutions with increasing NaCl concentrations were used to disassociate interactions of variable charge. […] Importantly, Applicants also observed that [^3H]-triptolide would only bind to intact cells in culture but would not bind to any component of a total cellular lysate as assessed by interaction with the DEAE resin. Negative results for a triptolide binding interaction were also observed with DNA-cellulose and the cation exchange resin SPFF (sulphopropyl).
Labeling studies were performed by the addition of approximately 30 nM [^3H]-triptolide directly into the culture media for one hour at 37° C. For cold competition studies, 1 μM triptolide was incubated with the cells for one hour before or after the addition of [^3H]-triptolide. Triptolide analog studies followed a similar protocol where concentrations used for competition were either 1 or 10 μM added before [^3H]-triptolide. Medium was removed and cells were washed 3× in cold PBS. Total cell lysates were prepared (150 mM NaCl, 50 mM Tris-HCl pH 7.4, 1 mM EDTA, 1% Triton X-100, and Complete protease inhibitors (Roche)) and protein was quantitated before measuring the [^3H]-triptolide binding activity via liquid scintillation.

[2] = tested on: HeLa cells; assay: [^3H]-triptolide saturation (specific) binding assay; conditions: saturation plot
Experimental: Based upon the data above, Applicants next sought to determine if triptolide binding was saturable and if more than one protein (or binding site) was being targeted. Determination of the [^3H]-triptolide binding affinity (KD) and the binding capacity per cell (Bmax) were calculated using a saturation plot. HeLa cells were cultured to 90% confluency and subsequently treated with 0-100 nM of [^3H]-triptolide for one hour. Non-specific binding was defined using 2 μM cold triptolide as competitor. Bmax was calculated to be 99±19 fmol triptolide bound/10^5 cells of triptolide binding sites.
Saturation binding assays were accomplished in HeLa cells adhered on 6-well plates in DMEM+10% FBS. All samples were at least 90% confluent at time of addition of triptolide. Non-specific binding of [^3H]-triptolide was assessed by the pre-incubation of 2 μM (non-labeled) triptolide for one hour. Following cold competition (or DMSO) 5, 10, 20, 50, or 100 nM of [^3H]-triptolide was added into the cultures for an additional one hour, and then cells were lysed and counted for binding activity.

[3] = tested on: HeLa cells; assay: Cellular fractionation of [^3H]-triptolide labeled HeLa cells; type: binding
Source text: as §1, with “DEAE.” for “DEAE. Batch elutions with increasing NaCl concentrations were used to disassociate interactions of variable charge.”, “Negative results for a triptolide binding interaction were also observed with DNA-cellulose and the cation exchange resin SPFF (sulphopropyl).” left out
For cellular fractionation studies, cells were allowed to swell on ice and lysed by passage through a syringe in a hypotonic lysis buffer (10 mM Tris-HCl+complete protease inhibitors). […] Gel slices were measured out in equal increments and the molecular weight range of each was calculated. […]

[4] = tested on: HeLa cells; assay: [^3H]-triptolide binding with or without extracellular calcium
Source text: To understand further the nature of triptolide's interaction within the cell, Applicants altered cell culture conditions to examine if [^3H]-triptolide binding would be affected. […] Additionally, it has been established that aberrant calcium signaling can result in cell death (Rizzuto, et al., 2003, Oncogene 22, 8619-8627; Orrenius, et al., 2003, Nat Rev Mol Cell Biol 4, 552-565). Due to triptolide's own link with NFκB and NF-AT and its propensity to induce cell death, Applicants examined if triptolide binding could be modulated by free calcium levels. Adherent HeLa cells were cultured in the presence or absence of calcium containing medium for 16 hours before [^3H]-triptolide addition. […] It is also noteworthy that an increase in cell density (not cell number) also increases triptolide binding regardless of calcium levels. Additionally, specific calcium chelation by 10 mM EGTA for one hour in calcium containing medium increased binding by nearly 2 fold.
Labeling studies were performed by the addition of approximately 30 nM [^3H]-triptolide directly into the culture media for one hour at 37° C. […] Total cell lysates were prepared (150 mM NaCl, 50 mM Tris-HCl pH 7.4, 1 mM EDTA, 1% Triton X-100, and Complete protease inhibitors (Roche)) and protein was quantitated before measuring the [^3H]-triptolide binding activity via liquid scintillation.

[5] = tested on: HeLa cells; assay: HeLa cell viability by trypan blue dye exclusion; type: cell-based
Experimental: Since extracellular calcium concentration can influence triptolide binding Applicants sought to determine if the presence of calcium influences the rate of triptolide-mediated apoptosis. To first establish the growth rate of HeLa in media±calcium, cell counts were performed over a 72 hour time course. Although calcium-free media caused cells to detach more easily, the overall growth rates were similar where cell doubling occurred every 24 hours on average (FIG. 3B). For triptolide experiments, cells were initially equilibrated in medium±calcium for 16 hours before the addition of 100 nM triptolide. Cell death was assessed by trypan blue dye exclusion at 24, 48, and 72 hours post drug treatment. In the presence of calcium-containing medium, triptolide induced at least 50% cell death by 24 hours with this trend continuing through later time points (FIG. 3C).
Applicants' results have implicated reversible binding of triptolide to a potential binding protein or complex that can be regulated by calcium. To understand if triptolide function is further separable between cell death and NFκB inhibition, Applicants examined the effect of concentration on these two endpoints. HeLa cells were cultured in the presence of 0, 10, 25, 50, or 100 nM of triptolide and separately assessed for cell death or the ability to suppress NFκB transactivation promoted by TNF-α. Following 24-48 hours of culture, viable cells were recovered and counted. Following 24 hours, triptolide concentrations from 25-100 nM caused greater than 50% of the cells to undergo cell death as assessed by detachment, clumping and the failure to exclude trypan blue dye. […] This is consistent with previous studies showing that low doses of triptolide cause cell cycle arrest rather than apoptosis (Kiviharju, et al., 2002, Clin Cancer Res 8, 2666-2674).
(§2) Based upon Applicants' studies examining the concentration dependent effect of triptolide on the two measured biological endpoints, cell death and transcriptional repression, Applicants wanted to determine how modulating triptolide's structure may also discriminate between the two pathways. For cell viability assays, HeLa cells were incubated with 0, 0.1, 1, or 10 μM of each analog or triptolide for 24 hours and then counted using trypan blue dye exclusion. […] NFκB transcriptional inhibition was measured using the κB-luciferase assay as previously described following 5 hours of incubation with each analog (0-10 μM) and TNF-α addition.
HeLa cells were incubated in DMEM or SMEM (Gibco) media+10% FBS and maintained at 37° C. in 5% CO2 for all experiments. HeLa cell viability was assessed by trypan blue dye exclusion, as well as by morphological examination (non-viable cells were rounded and detached from culture plate).

[6] = tested on: NFκB transactivation; assay: κB-luciferase reporter assay (TNF-α induced); type: cell-based; conditions: 5 hours
Experimental: Having established that triptolide induced cell death is dependent upon free calcium concentration, Applicants next determined if this was also a requirement for the inhibition of NFκB transcription. HeLa cells were transiently transfected with the κB-luciferase reporter construct for 8 hours before being washed and then cultured in the presence or absence of calcium containing medium for 16 hours. Triptolide (100 nM) was pre-incubated with cells for 1 hour before addition of 15 ng/ml of TNF-α for 4 hours.
As an additional experiment, transcriptional activity was also assessed by site-directed calcium buffering. HeLa cells were co-transfected with the κB-luciferase plasmid as well as one of the following constructs: GFP empty vector, NES-PV-GFP, or NLS-PV-GFP and proper GFP localization was confirmed. Cells were grown in the presence of calcium for 24 hours before the addition of 100 nM triptolide and 15 ng/ml TNF-α.
NFκB transactivation was examined using the κb-luciferase reporter construct. HeLa cells were transiently transfected and pre-treated with 0-100 nM triptolide for one hour prior to TNF-α addition. Cells were assessed for NFκB driven luciferase expression after an additional five hours of incubation, at which time TNF-α had induced transcriptional activity by approximately 15-fold in control cells. […] The results thus far support a divergence of triptolide-mediated functions: the pathway regulating growth arrest/death is more sensitive to triptolide and calcium than the mechanism leading to transcriptional repression of NFκB.
as §2
A triple κB promoter-Luciferase reporter construct was a gift of Sankar Ghosh (Yale University). HeLa cells were plated at a density of 2×10^5 in 12 well plates and transfected with 100 ng of the κB-Luciferase plasmid plus Lipofectamine 2000 (Invitrogen) for 24 hours before the addition of 100 nM triptolide for one hour and 15 ng/ml of recombinant (human) TNF-α (Roche) for an additional five hours. The transfection efficiency of HeLa was determined to be 80-90%, and all samples were normalized to protein concentration. Luciferase assays were performed using the Firefly luciferase kit as per manufacturer's protocol (Promega) and results obtained on the Wallac Victor2 1420 Multilabel Counter (Perkin Elmer).

SMILES | nature of binding interaction ([1]; excess unlabeled triptolide added after [^3H]-triptolide) | binding capacity per cell (Bmax) [2] | total cellular counts found in the cytosolic fraction ([3]; S-100) [%] | cellular fraction bound ([3]; S-100 / P-100 fractionation) | increase of binding ([4]; 10 mM EGTA for one hour in calcium containing medium) [fold] | increase of [^3H]-triptolide binding ([4]; absence of extracellular calcium for 16 hours) | competition for [^3H]-triptolide binding ([1]; HeLa cells) | cell viability ([5]; 0.1 μM, 24 hours) | cell growth ([5]; 0.1 μM, out to 72 hours) | cell death ([5]; 1 μM, 24 hours) | effect on NFκB transcriptional activity ([6]; 1 μM) | displacement of [^3H]-triptolide binding ([1]; 1 or 10 μM competitor one hour before [^3H]-triptolide, HeLa cells) | effect on cells ([5]; 25 nM) | profile of cell death ([5]; 0.1-10 μM, 24 hours) | profile of transcriptional repression ([6]; 0.1-10 μM)
CC(C)[C@]12O[C@H]1[C@@H]1O[C@]13[C@]1(O[C@H]1C[C@H]1C4=C(CC[C@@]13C)C(=O)OC4)[C@@H]2O [[^3H]-triptolide] | reversible | 99±19 fmol triptolide bound/10^5 cells | 25 | predominantly to the membrane fraction (P-100) | ~2 | 2-4 fold | – | – | – | – | – | – | – | – | –
CC(C)C1(O)C(O)C2OC23C2(C)CCC4=C(COC4=O)C2CC2OC23C1O (stereo not shown) [analog (2), Triol-Triptolide] | – | – | – | – | – | – | efficiently competes | not different from the untreated control | overall growth suppressive effect | greater than 50% | no effect | – | – | – | –
CC(C)[C@]12O[C@H]1[C@@H]1O[C@@]13[C@@]1(C)CCC4=C(COC4=O)[C@@H]1C[C@@H]1O[C@@]13C2=O [analog (3), Triptonide] | – | – | – | – | – | – | higher competitive ability than triptolide itself | – | – | – | – | near complete | only a growth suppressive effect | mimicked triptolide with no significant difference | mimicked triptolide with no significant difference
